Measured values taken from US11000033B2, “Ketone or oxime compound, and herbicide” (NISSAN CHEMICAL CORPORATION, priority 2014, dated 2021).

How the values were obtained:
[1] = tested on: Galium spurium; assay: Test Example 4: herbicidal effect by soil treatment (symbol Q); assay type: in vivo; conditions: application herbicide amount 320 g/ha
Outline: (§1)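 Seeds were sown in sterilized diluvial soil, covered with about 1.5 cm of soil, and the soil surface was sprayed with a water-diluted emulsion of the compound at a predetermined rate. Plants grew in a greenhouse at 25° C. to 30° C.; effects were scored visually 3 weeks after application.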

[2] = tested on: Chenopodium album; assay: Test Example 5: herbicidal effect by foliage application, plastic box (symbol O); assay type: in vivo; conditions: 320 g/ha, 3 weeks after application
Outline: (§2)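 Herbicide, formulated as an emulsion and diluted in water, is sprayed onto the aerial parts of 14-day seedlings. These were grown at 25° C. to 30° C. in sterilized diluvial soil; effects are graded after 3 weeks.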

[3] = tested on: rice plant; assay: Test Example 5: effect on crop by foliage application, plastic box (symbol b); assay type: in vivo; conditions: 320 g/ha, 3 weeks after application
Outline: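 Sterilized diluvial soil, plastic box (21 × 13 × 7 cm); spot sowing, ~1.5 cm soil cover; greenhouse 25–30° C.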

[4] = tested on: Veronica persica; assay: Test Example 4: herbicidal effect by soil treatment (symbol R); assay type: in vivo; conditions: application herbicide amount 320 g/ha
Outline: as §1

[5] = tested on: Stellaria media; assay: Test Example 5: herbicidal effect by foliage application, plastic box (symbol P); assay type: in vivo; conditions: 320 g/ha, 3 weeks after application
Outline: as §2

[6] = tested on: Chenopodium album; assay: Test Example 4: herbicidal effect by soil treatment (symbol O); assay type: in vivo; conditions: application herbicide amount 320 g/ha
Outline: as §1

Row | Compound | Q (Galium spurium) herbicidal effect grade [1] | melting point [°C] | O: Chenopodium album, herbicidal effect grade [2] | b: directly sowed rice plant, effect on crop grade [3] | R (Veronica persica) herbicidal effect grade [4] | P: Stellaria media, herbicidal effect grade [5] | O (Chenopodium album) herbicidal effect grade [6]
1 | CCC(C)C(CC1CC(O)=C(c2c(C)cc(C)cc2C)C1=O)=NOC (stereo not shown) [1-066] | 0 (Herbicidal ratio of 5% or lower (almost no effect)) | 154 to 156 | 1 (Herbicidal ratio of 5% or higher and lower than 20%) | 5 (Herbicidal ratio of 90% or more (almost completely withered)) | 0 (Herbicidal ratio of 5% or lower (almost no effect)) | 0 (Herbicidal ratio of 5% or lower (almost no effect)) | 0 (Herbicidal ratio of 5% or lower (almost no effect))
2 | CCCC(CC1CC(O)=C(c2c(C)cc(C)cc2C)C1=O)=NOC (stereo not shown) [1-062] | 0 (Herbicidal ratio of 5% or lower (almost no effect)) | 134 to 137 | 0 (Herbicidal ratio of 5% or lower (almost no effect)) | 5 (Herbicidal ratio of 90% or more (almost completely withered)) | 0 (Herbicidal ratio of 5% or lower (almost no effect)) | 0 (Herbicidal ratio of 5% or lower (almost no effect)) | 0 (Herbicidal ratio of 5% or lower (almost no effect))
3 | CON=C(C)CC1CC(OC)=C(c2c(C)cc(C)cc2C)C1=O (stereo not shown) [1-001, 2-mesityl-3-methoxy-5-{2-(methoxyimino)propyl}cyclopent-2-enone] | 0 (Herbicidal ratio of 5% or lower (almost no effect)) | 92 to 98 | 0 (Herbicidal ratio of 5% or lower (almost no effect)) | 0 (Herbicidal ratio of 5% or lower (almost no effect)) | 0 (Herbicidal ratio of 5% or lower (almost no effect)) | 0 (Herbicidal ratio of 5% or lower (almost no effect)) | 0 (Herbicidal ratio of 5% or lower (almost no effect))
4 | CON=C(C)CC1CC(O)=C(c2c(C)cc(C)cc2C)C1=O (stereo not shown) [1-002, 3-hydroxy-2-mesityl-5-{2-(methoxyimino)propyl}cyclopent-2-enone] | 1 (Herbicidal ratio of 5% or higher and lower than 20%) | 170 to 173 | 4 (Herbicidal ratio of 70% or higher and lower than 90%) | 5 (Herbicidal ratio of 90% or more (almost completely withered)) | 5 (Herbicidal ratio of 90% or more (almost completely withered)) | 4 (Herbicidal ratio of 70% or higher and lower than 90%) | 5 (Herbicidal ratio of 90% or more (almost completely withered))
